The text below walks through data of patent US20040097567A1, “Pharmaceutical composition” (priority 2001, published 2004).

The test system of the assay is diabetic rats, n0STZ. The assay is described as follows: Oral glucose tolerance test (OGTT) in n0STZ diabetic rats: plasmatic glycaemia and insulinaemia. It counts as in vivo, rat. To be noted: for Plasmatic insulin / Plasmatic glucose / Plasmatic glucose AUC / Plasmatic insulin AUC: OGTT glucose 2 g/kg, products given 2 hours before, Compound A 12.5 mg/kg, glibenclamide 2 mg/kg; for Plasmatic glucose AUC / Plasmatic insulin AUC: AUC over 0-120 min; for effect on carbohydrate tolerance: acute administration, 12.5 mg/kg compound A or 2 mg/kg glibenclamide. The method, then: Diabetes is induced in male rats (source: Iffa Credo) by intravenous administration of streptozotocin on the day of birth.
The rats are selected according to the criterion of hyperglycaemia 170±15 mg/dl.
The animals are grouped into 5 rats per batch and divided into 4 batches
The products are administered 2 hours before the glucose tolerance test, at a rate of 12.5 mg/kg for 4-[2-(2,4-dioxothiazolidin-5-yl)ethoxy]benzonitrile, 2 mg/kg for glibenclamide and the combination of the 2 products at the doses used in monotherapy.
The glucose tolerance test (OGTT) is performed on the conscious animal and consists in administering glucose at a rate of 2 g/kg. The plasmatic glucose clearance is analysed after this glucose load, over 2 hours (0-10-20-30-45-60-90 and 120 min).
In addition to plasmatic glycaemia, insulinaemia is also determined.

Structures are written as SMILES.

`N#Cc1ccc(OCCC2SC(=O)NC2=O)cc1` (stereo not shown) [Compound A, 4-[2-(2,4-dioxothiazolidin-5-yl)ethoxy]benzonitrile]: the “Plasmatic glucose AUC” value came out at 47702.5 and the “Plasmatic insulin AUC” value is on record as 10384.25. Moreover, the Plasmatic insulin (0 min) is reported as 47.2 μU/ml. The Plasmatic glucose (0 min, 5 rats/batch) was 160 mg/dL. Further, where the note is “10 min”, the Plasmatic glucose amounted to 321 mg/dL and the Plasmatic insulin came out at 100.8 μU/ml. In addition, where the note is “20 min”, the Plasmatic glucose was determined as 381 mg/dL and the Plasmatic insulin was 89.6 μU/ml. Besides, for the setting “30 min”, the Plasmatic glucose worked out at 418 mg/dL and the Plasmatic insulin amounted to 84.5 μU/ml. Also, for the setting “45 min”, the Plasmatic glucose is 424 mg/dL and the Plasmatic insulin was found to be 74.6 μU/ml. Further, under “60 min”, the Plasmatic glucose was found to be 447 mg/dL and the Plasmatic insulin turned out to be 77 μU/ml. For the same molecule, where the note is “90 min”, the Plasmatic glucose is 419 mg/dL and the Plasmatic insulin is 93.8 μU/ml. Besides, under “120 min”, the Plasmatic glucose was 378 mg/dL and the Plasmatic insulin is 101.5 μU/ml. In addition, the “decrease observed (carbohydrate tolerance, glucose curve vs control)” value (acute 12.5 mg/kg, n0STZ rats, OGTT) was 6%. Also, the “effect on carbohydrate tolerance” value (n0STZ rats, OGTT) was “little or no effect”.

`COc1ccc(Cl)cc1C(=O)NCCc1ccc(S(=O)(=O)NC(=O)NC2CCCCC2)cc1` [Glibenclamide]: the “Plasmatic glucose AUC” value was 55027.5 and the “Plasmatic insulin AUC” value was determined as 11930.75. In addition, the Plasmatic insulin (0 min) is on record as 84.2 μU/ml. Also, the Plasmatic glucose (0 min, 5 rats/batch) was 138 mg/dL. Where the note is “10 min”, the Plasmatic glucose stood at 312 mg/dL and the Plasmatic insulin came out at 116.9 μU/ml. Moreover, for the setting “20 min”, the Plasmatic glucose worked out at 407 mg/dL and the Plasmatic insulin is 129.4 μU/ml. For the setting “30 min”, the Plasmatic glucose is 470 mg/dL and the Plasmatic insulin stood at 105.8 μU/ml. Also, where the note is “45 min”, the Plasmatic glucose was determined as 520 mg/dL and the Plasmatic insulin turned out to be 100 μU/ml. Further, for the setting “60 min”, the Plasmatic glucose stood at 513 mg/dL and the Plasmatic insulin turned out to be 88.3 μU/ml. For the setting “90 min”, the Plasmatic glucose came to 507 mg/dL and the Plasmatic insulin was 92.5 μU/ml. Also, for the setting “120 min”, the Plasmatic glucose turned out to be 448 mg/dL and the Plasmatic insulin turned out to be 97.5 μU/ml. For the same molecule, the “increase observed (carbohydrate tolerance, glucose curve vs control)” value (acute 2 mg/kg, n0STZ rats, OGTT) is on record as 6%. Moreover, the “effect on carbohydrate tolerance” value (n0STZ rats, OGTT) is reported as “little or no effect”.
